The source of these data is US4620014A, “2-furylbutyrolactones and methods for using same” (priority 1983, dated 1986).

Experiment [1] relates to spleen lymphocytes from C57BL/6 mice. Put plainly: In vitro lymphocyte stimulation assay, C57BL/6 spleen lymphocytes. It counts as cell-based, mouse. The method, then: (§1) The purpose of this assay is to challenge lymphocytes in microcultures with one or more polyclonal mitogens at concentrations that will induce mitogenesis within 72 hours of stimulation.
(§2) In the mouse model, spleens are removed from different strains of mice and the spleen cells are teased free and suspended in RPMI-1640 tissue culture medium at a concentration of usually 1×10^7 ml. These cells are dispensed at a concentration of 5.0×10^5 cells per microculture well in a 96 well flat bottom 96 well tissue culture plate. All testing of the compounds of this invention or mitogens are done in replicates of 10. The cells are then treated with PHA, Con-A, specific antigens, or buffer only. If in vitro testing is done, varying concentrations of the compounds of this invention or buffer only are added to the cells as well. After treatment with the mitogens and/or compounds of this invention, the cells are incubated for 72 hours. The response of these cells to mitogens and/or the compounds of this invention is assessed using ^14 C-thymidine labeling on the fourth day at a concentration of 0.01 μCi/well. The labeled cells are harvested using a lymphocyte harvestor and placed onto fibrous paper discs. A scintillation cocktail is added to vials contaning the discs and the results are obtained using a LKB-liquid scintillation counter (Model 1216/Rackbeta II). The data is expressed as a ratio of the cpm of the mitogen stimulated group to the control (non-mitogen) treated group=lymphocyte stimulation index (LSI).
(§3) The lymphocyte stimulation assay may be performed directly on spleen cells obtained from various strains of mice not treated with the compounds of this invention or on lymphocytes obtained from […]. […] Alternatively, the mice may be treated in vivo with the compounds of this invention by intraperitoneal multi-dose schedules, followed by sacrifice and harvesting spleen lymphocytes. These cells are then tested for their response to polyclonal mitogens or specific antigens used to immunize the mice. In this sytem however, no additional compound is added to the in vitro lymphocyte stimulation assay system.
An in vitro lymphocyte stimulation assay is performed directly on normal spleen lymphocytes removed from five normal C57BL/6 mice, using concentrations of Cpd. […] Following three days of incubation the assay is completed.
An in vitro lymphocyte stimulation assay was performed using spleen lymphocytes from normal C57BL/6 mice. The lymphocytes were treated with either 1, 5, 10, 50, or 100 μg/well of Cpd. 1 or buffer.
Cpd. 2 was tested using normal spleen lymphocytes from C57BL/6 mice. A lymphocyte stimulation assay was conducted using either 1, 5, 10, 50, or 100 μg/well […] or just buffer.
Spleen cells from C57BL/6 mice were treated, in vitro, with the crystallizing reagents, succinic acid and succinimide. Since these compounds are spontaneously released from the molecular complex in solution at a molar ratio of 2 moles of Cpds. 1, 2, or 3 per mole of the crystalline reagent, these reagents were treated in the lymphocyte stimulation assay at proper molar concentrations.
The compound of example 3, Cpd. 3, was used to treat C57BL/6 spleen lymphocytes in vitro. The lymphocytes were treated with either 1, 5, 10, 50, or 100 μg/well of Cpd. 3 or just buffer and then a lymphocyte stimulation assay was performed.

In a further experiment the test system is human lymphocytes. Put plainly: In vitro lymphocyte stimulation assay in humans. It counts as cell-based. The conditions noted are these: 0.1-100 μg/well, PHA and Con-A. As to the method: as §1, §2
The lymphocyte stimulation assay may be performed directly on spleen cells obtained from various strains of mice not treated with the compounds of this invention or on lymphocytes obtained from […]. […] Alternatively, the mice may be treated in vivo with the compounds of this invention by intraperitoneal multi-dose schedules, followed by sacrifice and harvesting spleen lymphocytes. These cells are then tested for their response to polyclonal mitogens or specific antigens used to immunize the mice. […]

Experiment [2] relates to spleen lymphocytes of C57BL/6 mice. Put plainly: In vivo treatment, lymphocyte stimulation assay, C57BL/6 mice. The note with it: 4 days. The method, then: as §1, §2, §3
Two strains of mice, C57BL/6 and BDF1 are treated for seven days with i.p. administration of either 25, 50, 100, 200, or 400 mg/kg of Cpd. 1 or just buffer. This is followed on the eighth day by a lymphocyte stimulation assay.
A comparison is made of the lymphocyte response to C57BL/6 mice treated 4 days with i.p. administration of either 50, 100, 200, 400 or 800 mg/kg of Cpd. 1, 50, 100, 200, 400 or 800 mg/kg of ascorbic acid (AA), or just buffer. This is followed on the fifth day by a lymphocyte stimulation assay.
Two strains of mice, C57BL/6 and BALB/c, are treated 4 days with i.p. administration of either 50, 100, 200, or 400 mg/kg of Cpd. 1, or just buffer. This is followed on the fifth day by a lymphocyte stimulation assay.
C57BL/6 mice were treated with four daily i.p. doses of either 50, 100, 200, or 400 mg/kg of Cpd. 1 or just buffer. On the fifth day a lymphocyte stimulation assay was performed.
Mice of the C57BL/6 strain were tested with i.p. administration of either 100, 200, 400 or 600 mg/kg of Cpd. 1 or just buffer. This was followed by removal of spleens and treatment of lymphocytes therein with mitogens PHA and Con-A.
The compound of Example 2, Cpd. 2, was tested in vivo by using C57BL/6 mice and treating them with […] or just buffer for four consecutive days by the i.p. route. On the fifth day a lymphocyte stimulation assay was performed.

The subject of the next experiment is L-1210 leukemia. Put plainly: Anti-cancer study, L-1210 leukemia in BDF1 mice. Format: in vivo, mouse. The note with it: 20 mg/kg, seven days (Table 25). An excerpt:
Mice of the BDF1 strain are given an i.p. inoculation of 10^6 L-1210 leukemia cells on day 0. Twenty-four hours later, groups of 7 mice each are started on a […] treatment regimen of various doses of the compounds of this invention. The experiment is continued according to the guidelines provided under the National Cancer Institute protocol for screening new anti-cancer agents and T/C ratios (median or mean survival time of treated groups over median or mean survival time of controls) are calculated. A T/C value ≥1.25 (or 125%) is considered significant anticancer activity.
Mice of the BDF1 strain, inoculated with L-1210 leukemia cells, are treated for seven days with either 25, 50, 100, 200 or 400 mg/kg of Cpd. 1 or just buffer. The National Cancer Institute protocol for screening new anti-cancer agents is followed and T/C ratios are calculated.
Mice of the BDF1 strain, inoculated with L-1210 leukemia cells, are treated for seven days with either 100 mg/kg of Cpd. 1, 20 mg/kg of 5-fluorouracil (5-FU), a known anti-cancer agent, or just buffer. The National Cancer Institute protocol for screening new anti-cancer agents is followed and T/C ratios are calculated.

Consider `O=C1CCC(=O)N1` [Succinimide, succinimide, reference compound], for which, in experiment [1] (13.92 μg/well in vitro), the “Lymphocyte Stimulation Index, Con-A” value amounted to 92.9; the “Lymphocyte Stimulation Index, Control (no mitogen)” value is 1.4; the “Lymphocyte Stimulation Index, PHA” value is 17.1. Also, the “effect on response to either mitogen” value in experiment [1] (0.87-13.92 μg/well) is on record as “no significant suppressive or enhancing effect”.

With `CN1C(=O)CCC1=O.Cc1ccc(C2(O)C(=O)OC3C(O)COC32O)o1.Cc1ccc(C2(O)C(=O)OC3C(O)COC32O)o1` (stereo not shown) [Cpd. 3], the “Lymphocyte Stimulation Index, Con-A” value in experiment [1] (1 μg/well in vitro) is on record as 73.2; in experiment [1] (5 μg/well in vitro) it was 80.9; in experiment [1] (10 μg/well in vitro), 89.6; in experiment [1] (50 μg/well in vitro), 97.2; in experiment [1] (100 μg/well in vitro) it was 2.88. For the same compound, the “Lymphocyte Stimulation Index, Control (no mitogen)” value is listed as “.60” in experiment [1] (1 μg/well in vitro); “.64” in experiment [1] (5 μg/well in vitro); “.47” in experiment [1] (10 μg/well in vitro); “.27” in experiment [1] (50 μg/well in vitro); “.25” in experiment [1] (100 μg/well in vitro). Also, the “Lymphocyte Stimulation Index, PHA” value in experiment [1] (1 μg/well in vitro) is 12.5; in experiment [1] (5 μg/well in vitro), 18.5; in experiment [1] (10 μg/well in vitro), 24.0; in experiment [1] (50 μg/well in vitro), 4.08; in experiment [1] (100 μg/well in vitro), 0.263. The “response to PHA” value is “significantly stimulated the response” in experiment [1] (10 μg/well); “suppressed the response” in experiment [1] (50 and 100 μg/well). In addition, the figures for the “response to Con-A” value in experiment [1] (50 μg/well) and in experiment [1] (100 μg/well) were “slightly stimulated the response” and “suppressed the response”, respectively.

Regarding `O=C1O[C@H]([C@@H](O)CO)C(O)=C1O` [AA, ascorbic acid, reference compound], in the experiment with human lymphocytes, the “proliferative or anti-proliferative effect” value is “no significant proliferative or anti-proliferative effect”. Moreover, the “proliferation with Con-A” value in experiment [2] (50 mg/kg i.p.) was “stimulation of proliferation”. The “effect with PHA” value in experiment [2] (50-800 mg/kg i.p.) is given as “No statistically significant measurable effect”.

For the compound `O=C(O)CCC(=O)O` [Succinic Acid, succinic acid, reference compound], the “Lymphocyte Stimulation Index, Con-A” value is given as 64.6 in experiment [1] (1.04 μg/well in vitro); 51.1 in experiment [1] (2.08 μg/well in vitro); 42.3 in experiment [1] (4.15 μg/well in vitro); 35.6 in experiment [1] (8.3 μg/well in vitro); 38.5 in experiment [1] (16.6 μg/well in vitro). Moreover, the “Lymphocyte Stimulation Index, Control (no mitogen)” value in experiment [1] (1.04 μg/well in vitro) was “.94”; in experiment [1] (2.08 μg/well in vitro), 1.0; in experiment [1] (4.15 μg/well in vitro), “.91”; in experiment [1] (8.3 μg/well in vitro) it was “.91”; in experiment [1] (16.6 μg/well in vitro), 1.1. The “Lymphocyte Stimulation Index, PHA” value was 15.7 in experiment [1] (1.04 μg/well in vitro); 15.3 in experiment [1] (2.08 μg/well in vitro); 14.0 in experiment [1] (4.15 μg/well in vitro); 12.4 in experiment [1] (8.3 μg/well in vitro); 11.5 in experiment [1] (16.6 μg/well in vitro). For the same compound, the “PHA and Con-A mitogenesis” value in experiment [1] (with increased dosage, 1.04-16.6 μg/well) was “decrease in PHA and Con-A mitogenesis”.

As for `O=c1[nH]cc(F)c(=O)[nH]1` [5-FU, 5-fluorouracil, reference compound], the “Median Survival Time” value with L-1210 leukemia turned out to be 30.
